Reference: the NIST ThermoML archive (doi:10.1016/j.fluid.2017.02.012)

Conditions: Liquid, Pendant drop shape

CCCCCCCCCCCCCCCCC [heptadecane] + O=C=O
Conditions | interfacial tension [mN/m]
313.15 K, 390 kPa | 25.11
313.15 K, 1300 kPa | 22.73
313.15 K, 2350 kPa | 20.26
313.15 K, 3500 kPa | 17.14
313.15 K, 5000 kPa | 13.27
313.15 K, 6500 kPa | 9.3
313.15 K, 8000 kPa | 5.34
313.15 K, 9000 kPa | 2.7
333.15 K, 750 kPa | 22.56
333.15 K, 1860 kPa | 20.55
333.15 K, 2830 kPa | 18.33
333.15 K, 3810 kPa | 16.6
333.15 K, 4850 kPa | 14.57
333.15 K, 5930 kPa | 12.56
333.15 K, 7090 kPa | 10.2
333.15 K, 8280 kPa | 8.07
333.15 K, 9630 kPa | 5.7
333.15 K, 10600 kPa | 4.26
353.15 K, 940 kPa | 19.98
353.15 K, 1910 kPa | 18.81
353.15 K, 3030 kPa | 17.6
353.15 K, 4000 kPa | 16.02
353.15 K, 5220 kPa | 14.29
353.15 K, 6110 kPa | 12.99
353.15 K, 7210 kPa | 11.23
353.15 K, 8580 kPa | 9.36
353.15 K, 9500 kPa | 8.34
353.15 K, 10740 kPa | 6.77
353.15 K, 12020 kPa | 5.27
353.15 K, 13180 kPa | 4.15
373.15 K, 920 kPa | 19.2
373.15 K, 2390 kPa | 17.81
373.15 K, 4000 kPa | 15.65
373.15 K, 5490 kPa | 13.83
373.15 K, 7260 kPa | 11.8
373.15 K, 9000 kPa | 9.93
373.15 K, 10800 kPa | 8.1
373.15 K, 12560 kPa | 6.21
373.15 K, 13470 kPa | 5.47
373.15 K, 14640 kPa | 4.43
393.15 K, 1190 kPa | 18.38
393.15 K, 4320 kPa | 14.69
393.15 K, 6780 kPa | 12.43
393.15 K, 10600 kPa | 8.46
393.15 K, 13920 kPa | 5.87

CCCCCCCCC [nonane] + O=C=O
Conditions | interfacial tension [mN/m]
313.15 K, 500 kPa | 20.26
313.15 K, 1490 kPa | 17.76
313.15 K, 2460 kPa | 15.19
313.15 K, 3500 kPa | 12.77
313.15 K, 4500 kPa | 10.11
313.15 K, 5490 kPa | 7.35
313.15 K, 6620 kPa | 4.28
313.15 K, 7290 kPa | 2.5
333.15 K, 390 kPa | 18.9
333.15 K, 1440 kPa | 16.61
333.15 K, 2400 kPa | 14.76
333.15 K, 3320 kPa | 12.98
333.15 K, 4460 kPa | 11.05
333.15 K, 5400 kPa | 9.01
333.15 K, 6220 kPa | 7.55
333.15 K, 7290 kPa | 5.61
333.15 K, 8230 kPa | 3.83
353.15 K, 1080 kPa | 16.12
353.15 K, 2100 kPa | 14.28
353.15 K, 3090 kPa | 12.81
353.15 K, 4130 kPa | 11
353.15 K, 5130 kPa | 9.64
353.15 K, 6030 kPa | 8.29
353.15 K, 6990 kPa | 6.95
353.15 K, 8000 kPa | 5.67
353.15 K, 9400 kPa | 3.85
373.15 K, 1060 kPa | 14.6
373.15 K, 2110 kPa | 13.15
373.15 K, 3060 kPa | 11.85
373.15 K, 4190 kPa | 10.43
373.15 K, 5200 kPa | 9.22
373.15 K, 6210 kPa | 7.93
373.15 K, 7000 kPa | 7.04
373.15 K, 7990 kPa | 6.08
373.15 K, 9340 kPa | 4.61
373.15 K, 10460 kPa | 3.58
393.15 K, 940 kPa | 13.32
393.15 K, 3080 kPa | 10.78
393.15 K, 5700 kPa | 8.17
393.15 K, 9300 kPa | 4.7
393.15 K, 11410 kPa | 2.98

CCCCCCCCCCCCCCC [pentadecane] + O=C=O
Conditions | interfacial tension [mN/m]
313.15 K, 430 kPa | 21.65
313.15 K, 1100 kPa | 20.48
313.15 K, 2090 kPa | 18.38
313.15 K, 3090 kPa | 16.15
313.15 K, 4080 kPa | 14.04
313.15 K, 5090 kPa | 11.41
313.15 K, 6090 kPa | 8.91
313.15 K, 6890 kPa | 6.25
313.15 K, 8060 kPa | 2.69
333.15 K, 360 kPa | 20.84
333.15 K, 1380 kPa | 19.61
333.15 K, 2390 kPa | 17.57
333.15 K, 3490 kPa | 15.7
333.15 K, 4330 kPa | 14.41
333.15 K, 5290 kPa | 12.81
333.15 K, 5990 kPa | 11.75
333.15 K, 7290 kPa | 9.17
333.15 K, 8400 kPa | 6.86
333.15 K, 9860 kPa | 4.22
353.15 K, 580 kPa | 19.83
353.15 K, 1630 kPa | 18.11
353.15 K, 2790 kPa | 17.01
353.15 K, 3610 kPa | 15.63
353.15 K, 4630 kPa | 14.2
353.15 K, 5700 kPa | 12.85
353.15 K, 6630 kPa | 11.53
353.15 K, 7720 kPa | 9.79
353.15 K, 8560 kPa | 8.69
353.15 K, 9490 kPa | 7.32
353.15 K, 10730 kPa | 5.87
353.15 K, 11560 kPa | 4.82
353.15 K, 12000 kPa | 4.24
373.15 K, 1080 kPa | 18.21
373.15 K, 2060 kPa | 16.61
373.15 K, 3240 kPa | 15.25
373.15 K, 4280 kPa | 14.53
373.15 K, 5390 kPa | 13.01
373.15 K, 6240 kPa | 12.08
373.15 K, 7340 kPa | 10.81
373.15 K, 8340 kPa | 9.6
373.15 K, 9400 kPa | 8.42
373.15 K, 10490 kPa | 7.37
373.15 K, 12060 kPa | 5.74
373.15 K, 13190 kPa | 4.64
373.15 K, 13960 kPa | 4.06
393.15 K, 3280 kPa | 14.72
393.15 K, 5680 kPa | 12.36
393.15 K, 8600 kPa | 9.58
393.15 K, 11400 kPa | 6.86
393.15 K, 14720 kPa | 4.22

CCCCCCCCCCCCC [tridecane] + O=C=O
Conditions | interfacial tension [mN/m]
313.15 K, 550 kPa | 22.3
313.15 K, 2100 kPa | 18.58
313.15 K, 3240 kPa | 15.83
313.15 K, 4300 kPa | 13.06
313.15 K, 5300 kPa | 10.43
313.15 K, 5940 kPa | 8.57
313.15 K, 7490 kPa | 3.8
333.15 K, 330 kPa | 21.41
333.15 K, 1360 kPa | 19.62
333.15 K, 2440 kPa | 17.54
333.15 K, 3580 kPa | 15.34
333.15 K, 5410 kPa | 11.87
333.15 K, 5930 kPa | 10.74
333.15 K, 6830 kPa | 9.08
333.15 K, 8000 kPa | 6.91
333.15 K, 8780 kPa | 5.38
333.15 K, 9410 kPa | 4.25
333.15 K, 10010 kPa | 3.24
353.15 K, 440 kPa | 19.97
353.15 K, 1760 kPa | 17.82
353.15 K, 3190 kPa | 15.75
353.15 K, 4830 kPa | 13.15
353.15 K, 5700 kPa | 11.84
353.15 K, 6050 kPa | 11.5
353.15 K, 7500 kPa | 9.24
353.15 K, 8990 kPa | 7.3
353.15 K, 10030 kPa | 5.75
353.15 K, 10880 kPa | 4.76
353.15 K, 11770 kPa | 3.76
373.15 K, 540 kPa | 18.67
373.15 K, 2380 kPa | 16.03
373.15 K, 4400 kPa | 13.13
373.15 K, 5790 kPa | 11.68
373.15 K, 8100 kPa | 9.03
373.15 K, 9910 kPa | 6.93
373.15 K, 12260 kPa | 4.57
373.15 K, 13710 kPa | 3.32
393.15 K, 410 kPa | 17.04
393.15 K, 4630 kPa | 12.6
393.15 K, 8730 kPa | 8.27
393.15 K, 13580 kPa | 4.32

CCCCCCCCCCC [undecane] + O=C=O
Conditions | interfacial tension [mN/m]
313.15 K, 340 kPa | 22.19
313.15 K, 1410 kPa | 19.54
313.15 K, 2530 kPa | 16.91
313.15 K, 3590 kPa | 14.36
313.15 K, 4700 kPa | 11.15
313.15 K, 5630 kPa | 8.47
313.15 K, 6540 kPa | 5.82
313.15 K, 7100 kPa | 3.75
333.15 K, 350 kPa | 20.59
333.15 K, 1700 kPa | 17.96
333.15 K, 3240 kPa | 14.87
333.15 K, 4730 kPa | 12.15
333.15 K, 5810 kPa | 9.86
333.15 K, 7190 kPa | 7.45
333.15 K, 8000 kPa | 5.82
333.15 K, 8910 kPa | 4.12
353.15 K, 440 kPa | 18.64
353.15 K, 1800 kPa | 16.41
353.15 K, 3430 kPa | 14.14
353.15 K, 4930 kPa | 11.74
353.15 K, 6480 kPa | 9.53
353.15 K, 7890 kPa | 7.53
353.15 K, 8940 kPa | 5.99
353.15 K, 10190 kPa | 4.39
373.15 K, 410 kPa | 17.05
373.15 K, 1880 kPa | 15.22
373.15 K, 3100 kPa | 13.86
373.15 K, 4410 kPa | 12.26
373.15 K, 5910 kPa | 10.19
373.15 K, 7020 kPa | 8.84
373.15 K, 8600 kPa | 7.05
373.15 K, 9900 kPa | 5.73
373.15 K, 11680 kPa | 3.99
393.15 K, 530 kPa | 15.69
393.15 K, 3300 kPa | 12.38
393.15 K, 5820 kPa | 9.76
393.15 K, 9300 kPa | 6.53
393.15 K, 12810 kPa | 3.55
